Read-outs that look alike come from different tables or passages of the source.
How the values were obtained:
GLP-1R [1] = target: T1, GLP-1R (Homo sapiens, UniProt P43220); assay: HitHunter cAMP assay (GLP-1R); assay type: cell-based; settings: cAMP; for Emax: read-out: (Emax) GLP-1R
In short: (§1)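 Luminescent readout of cAMP by enzyme-fragment immunocompetition gave agonist concentration-response data. Cells (10,000/well) sat in HBSS buffer containing IBMX 625 μM, HEPES 10 mM and BSA 0.2%, exposed to agonist for 30 min at room temperature.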

GIP-R = target: T2, GIP-R (Homo sapiens, UniProt P48546); assay: HitHunter cAMP assay (GIP-R); assay type: cell-based; settings: cAMP; for Emax: read-out: (Emax) GIP-R
T2 sequence (P48546 22-466): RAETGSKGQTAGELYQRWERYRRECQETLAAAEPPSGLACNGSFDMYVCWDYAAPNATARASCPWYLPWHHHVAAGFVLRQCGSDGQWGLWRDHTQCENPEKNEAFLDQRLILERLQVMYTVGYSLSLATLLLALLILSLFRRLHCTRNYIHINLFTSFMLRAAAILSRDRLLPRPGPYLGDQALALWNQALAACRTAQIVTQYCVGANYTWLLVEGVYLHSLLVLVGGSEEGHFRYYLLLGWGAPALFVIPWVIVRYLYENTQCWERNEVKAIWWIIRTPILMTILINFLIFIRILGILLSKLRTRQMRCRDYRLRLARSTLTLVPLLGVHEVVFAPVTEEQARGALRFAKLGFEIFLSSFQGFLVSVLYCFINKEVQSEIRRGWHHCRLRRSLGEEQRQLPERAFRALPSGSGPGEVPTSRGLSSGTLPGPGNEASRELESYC
In short: as §1

mice = assay: Glucose tolerance test (GTT); assay type: in vivo, mouse; settings: 24 h GTT, s.c., dose range 2-5 nmol/kg, percent of vehicle
In short: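 Compounds diluted in PBS from 1 mM DMSO stocks and given subcutaneously 15 min (5-6 h fast), 4 h (16 h overnight fast), 16 h or 24 h before intraperitoneal glucose (2 g/kg). Tail blood glucose read at 10–120 min post-glucose, at least 6 mice per time-point. Glucose AUC over time determined.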

GLP-1R [2] = target: T1, GLP-1R; assay: PathHunter β-arrestin assay; assay type: cell-based
In short: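 Overnight-plated cells; 0.2% BSA medium; agonist 22-pt 2× dilution series, duplicate; 90 min, 37 °C/5% CO2; detection reagent 3 h RT, dark; luminescence.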

[3] = Table 3, read-out: EC50 GLP-1R/nM
[4] = Table 3A, read-out: EC50 GLP-1R/nM
[5] = Table 3, read-out: EC50 GIP-R/nM
[6] = Table 3A, read-out: EC50 GIP-R/nM
[7] = PathHunter β-arrestin assay, read-out: β-arrestin activity EC50

T1 sequence (P43220 24-463): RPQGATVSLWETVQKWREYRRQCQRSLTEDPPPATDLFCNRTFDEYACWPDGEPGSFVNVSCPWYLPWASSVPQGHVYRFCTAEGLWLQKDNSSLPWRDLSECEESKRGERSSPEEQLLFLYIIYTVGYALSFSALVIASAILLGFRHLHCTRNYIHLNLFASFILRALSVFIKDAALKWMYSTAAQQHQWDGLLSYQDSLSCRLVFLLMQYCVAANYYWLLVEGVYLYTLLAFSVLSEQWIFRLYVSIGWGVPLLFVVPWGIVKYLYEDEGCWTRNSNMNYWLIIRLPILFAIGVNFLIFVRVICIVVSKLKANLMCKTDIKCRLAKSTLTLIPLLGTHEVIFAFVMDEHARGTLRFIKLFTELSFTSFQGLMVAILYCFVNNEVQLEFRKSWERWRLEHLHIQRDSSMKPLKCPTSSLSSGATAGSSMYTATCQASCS

Compound | EC50 (GLP-1R [1]; EC50 GLP-1R/nM, Table 3) [nM] | EC50 (GLP-1R [1]; EC50 GLP-1R/nM, Table 3A) [nM] | Emax (GLP-1R [1]; Table 3) [%] | Emax (GLP-1R [1]; Table 3A) [%] | EC50 (GIP-R; EC50 GIP-R/nM, Table 3) [nM] | EC50 (GIP-R; EC50 GIP-R/nM, Table 3A) [nM] | Emax (GIP-R; Table 3) [%] | Emax (GIP-R; Table 3A) [%] | AUC score (mice) | EC50 (GLP-1R [2]) [nM] | EC50 (GLP-1R [1]; [3]) [nM] | EC50 (GLP-1R [1]; [4]) [nM] | EC50 (GIP-R; [5]) [nM] | EC50 (GIP-R; [6]) [nM] | EC50 (GLP-1R [2]; [7]) [nM]
CCCCCCCCCCCCCCCC(=O)N[C@@H](CCC(=O)NCCCC[C@H](NC(=O)[C@H](CO)NC(=O)[C@@H]1CCCN1C(=O)[C@@H]1CCCN1C(=O)[C@@H]1CCCN1C(=O)[C@H](C)NC(=O)CNC(=O)[C@H](CO)NC(=O)[C@H](CO)NC(=O)[C@@H]1CCCN1C(=O)CNC(=O)CNC(=O)[C@H](C)NC(=O)[C@H](CC(C)C)NC(=O)[C@H](CC(C)C)NC(=O)[C@H](Cc1c[nH]c2ccccc12)NC(=O)[C@H](CC(N)=O)NC(=O)[C@@H](NC(=O)[C@H](Cc1ccccc1)NC(=O)[C@H](CCC(=O)O)NC(=O)C(C)(C)NC(=O)[C@H](C)NC(=O)[C@H](C)NC(=O)[C@H](CCC(N)=O)NC(=O)[C@H](CCCCN)NC(=O)[C@H](CC(=O)O)NC(=O)[C@H](CC(C)C)NC(=O)[C@H](Cc1ccc(O)cc1)NC(=O)[C@@H](NC(=O)[C@H](CO)NC(=O)[C@H](Cc1ccc(O)cc1)NC(=O)[C@H](CC(=O)O)NC(=O)[C@H](CO)NC(=O)[C@@H](NC(=O)[C@H](Cc1ccccc1)NC(=O)[C@@H](NC(=O)CNC(=O)[C@H](CCC(=O)O)NC(=O)CSCC(=O)NCCN1CCCCCC1=O)[C@@H](C)O)[C@@H](C)O)[C@@H](C)CC)C(C)C)C(N)=O)C(=O)O [Compound 41] | 0.1 to 1 | 0.1 to 1 | 100 to 104 | 100 to 104 | 1 to 10 | 1 to 10 | 75 | 75 | 4 (AUC score 4 = 76-100%) | > 1000 | – | – | – | – | –
CCCCCCCCCCCCCCCC(=O)N[C@@H](CCC(=O)NCCCC[C@H](NC(=O)[C@H](CO)NC(=O)[C@@H]1CCCN1C(=O)[C@@H]1CCCN1C(=O)[C@@H]1CCCN1C(=O)[C@H](C)NC(=O)CNC(=O)[C@H](CO)NC(=O)[C@H](CO)NC(=O)[C@@H]1CCCN1C(=O)CNC(=O)CNC(=O)[C@H](C)NC(=O)[C@H](CC(C)C)NC(=O)[C@H](CC(C)C)NC(=O)[C@H](Cc1c[nH]c2ccccc12)NC(=O)[C@H](CC(N)=O)NC(=O)[C@@H](NC(=O)[C@H](Cc1ccccc1)NC(=O)[C@H](CCC(=O)O)NC(=O)C(C)(C)NC(=O)[C@H](C)NC(=O)[C@H](C)NC(=O)[C@H](CCC(N)=O)NC(=O)[C@H](CCCCN)NC(=O)[C@H](CC(=O)O)NC(=O)[C@H](CC(C)C)NC(=O)[C@H](Cc1ccc(O)cc1)NC(=O)[C@@H](NC(=O)[C@H](CO)NC(=O)[C@H](Cc1ccc(O)cc1)NC(=O)[C@H](CC(=O)O)NC(=O)[C@H](CO)NC(=O)[C@@H](NC(=O)[C@H](Cc1ccccc1)NC(=O)[C@@H](NC(=O)CNC(=O)[C@H](CCC(=O)O)NC(=O)CCNC(=O)CN1CCCCC1=O)[C@@H](C)O)[C@@H](C)O)[C@@H](C)CC)C(C)C)C(N)=O)C(=O)O [Compound 5] | – | – | 95 | 95 | – | – | 74 | 74 | 2 (AUC score 2 = 26-50%) | – | < 0.1 | < 0.1 | 1 to 10 | 1 to 10 | 10 to 1000
CCCCCCCCCCCCCCCC(=O)N[C@@H](CCC(=O)NCCCC[C@H](NC(=O)[C@H](CO)NC(=O)[C@@H]1CCCN1C(=O)[C@@H]1CCCN1C(=O)[C@@H]1CCCN1C(=O)[C@H](C)NC(=O)CNC(=O)[C@H](CO)NC(=O)[C@H](CO)NC(=O)[C@@H]1CCCN1C(=O)CNC(=O)CNC(=O)[C@H](C)NC(=O)[C@H](CC(C)C)NC(=O)[C@H](CC(C)C)NC(=O)[C@H](Cc1c[nH]c2ccccc12)NC(=O)[C@H](CC(N)=O)NC(=O)[C@@H](NC(=O)[C@H](Cc1ccccc1)NC(=O)[C@H](CCC(=O)O)NC(=O)C(C)(C)NC(=O)[C@H](C)NC(=O)[C@H](C)NC(=O)[C@H](CCC(N)=O)NC(=O)[C@H](CCCCN)NC(=O)[C@H](CC(=O)O)NC(=O)[C@H](CC(C)C)NC(=O)[C@H](Cc1ccc(O)cc1)NC(=O)[C@@H](NC(=O)[C@H](CO)NC(=O)[C@H](Cc1ccc(O)cc1)NC(=O)[C@H](CC(=O)O)NC(=O)[C@H](CO)NC(=O)[C@@H](NC(=O)[C@H](Cc1ccccc1)NC(=O)[C@@H](NC(=O)CNC(=O)[C@H](CCC(=O)O)NC(=O)CSCC(=O)NCCN1CCCC1=O)[C@@H](C)O)[C@@H](C)O)[C@@H](C)CC)C(C)C)C(N)=O)C(=O)O [Compound 83] | – | – | 106 | 106 | – | – | 73 | 73 | 2 (AUC score 2 = 26-50%) | – | 0.1 to 1 | 0.1 to 1 | 1 to 10 | 1 to 10 | > 1000
CCCCCCCCCCCCCCCC(=O)N[C@@H](CCC(=O)NCCCC[C@H](NC(=O)[C@H](CO)NC(=O)[C@@H]1CCCN1C(=O)[C@@H]1CCCN1C(=O)[C@@H]1CCCN1C(=O)[C@H](C)NC(=O)CNC(=O)[C@H](CO)NC(=O)[C@H](CO)NC(=O)[C@@H]1CCCN1C(=O)CNC(=O)CNC(=O)[C@H](C)NC(=O)[C@H](CC(C)C)NC(=O)[C@H](CC(C)C)NC(=O)[C@H](Cc1c[nH]c2ccccc12)NC(=O)[C@H](CC(N)=O)NC(=O)[C@@H](NC(=O)[C@H](Cc1ccccc1)NC(=O)[C@H](CCC(=O)O)NC(=O)C(C)(C)NC(=O)[C@H](C)NC(=O)[C@H](C)NC(=O)[C@H](CCC(N)=O)NC(=O)[C@H](CCCCN)NC(=O)[C@H](CC(=O)O)NC(=O)[C@H](CC(C)C)NC(=O)[C@H](Cc1ccc(O)cc1)NC(=O)[C@@H](NC(=O)[C@H](CO)NC(=O)[C@H](Cc1ccc(O)cc1)NC(=O)[C@H](CC(=O)O)NC(=O)[C@H](CO)NC(=O)[C@@H](NC(=O)[C@H](Cc1ccccc1)NC(=O)[C@@H](NC(=O)CNC(=O)[C@H](CCC(=O)O)NC(=O)CCNC(=O)Cn1ccccc1=O)[C@@H](C)O)[C@@H](C)O)[C@@H](C)CC)C(C)C)C(N)=O)C(=O)O [Compound 234] | – | – | – | 97 | – | – | – | 76 | 3 (AUC score 3 = 51-75%) | – | – | 0.1 to 1 | – | 1 to 10 | > 1000
CCCCCCCCCCCCCCCC(=O)N[C@@H](CCC(=O)NCCCC[C@H](NC(=O)[C@H](CO)NC(=O)[C@@H]1CCCN1C(=O)[C@@H]1CCCN1C(=O)[C@@H]1CCCN1C(=O)[C@H](C)NC(=O)CNC(=O)[C@H](CO)NC(=O)[C@H](CO)NC(=O)[C@@H]1CCCN1C(=O)CNC(=O)CNC(=O)[C@H](C)NC(=O)[C@H](CC(C)C)NC(=O)[C@H](CC(C)C)NC(=O)[C@H](Cc1c[nH]c2ccccc12)NC(=O)[C@H](CC(N)=O)NC(=O)[C@@H](NC(=O)[C@H](Cc1ccccc1)NC(=O)[C@H](CCC(=O)O)NC(=O)C(C)(C)NC(=O)[C@H](C)NC(=O)[C@H](C)NC(=O)[C@H](CCC(N)=O)NC(=O)[C@H](CCCCN)NC(=O)[C@H](CC(=O)O)NC(=O)[C@H](CC(C)C)NC(=O)[C@H](Cc1ccc(O)cc1)NC(=O)[C@@H](NC(=O)[C@H](CO)NC(=O)[C@H](Cc1ccc(O)cc1)NC(=O)[C@H](CC(=O)O)NC(=O)[C@H](CO)NC(=O)[C@@H](NC(=O)[C@H](Cc1ccccc1)NC(=O)[C@@H](NC(=O)CNC(=O)[C@H](CCC(=O)O)NC(=O)CNC(=O)CN1CCCCC1=O)[C@@H](C)O)[C@@H](C)O)[C@@H](C)CC)C(C)C)C(N)=O)C(=O)O [Compound 2] | – | – | 99 | 99 | – | – | 46 | 46 | 2 (AUC score 2 = 26-50%) | – | < 0.1 | < 0.1 | 1 to 10 | 1 to 10 | > 1000

From patent US20260176320A1, “MODULATORS OF G-PROTEIN COUPLED RECEPTORS” (priority 2018, published 2026)
